Biological target: T1, mu opiate receptor (MOR) (Rattus norvegicus, UniProt P33535)
T1 construct: from tissue; host or cells: striatum (membrane preparation)
Test: MOR agonist activity using [35S]GTPgS binding assay in striatal membranes
Type: biochemical
Parameters: MOR agonist activity (preliminary study): unit of the concentration uncertain
Conditions: for MOR agonist activity (preliminary study): average of two runs
Method in brief: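 Rat striatal membranes incubated 5 min at 30 °C in pH 7.5 HEPES buffer with 100 mM NaCl, 1 mM MgCl2 and 0.5 nM [35S]GTPgS, then 5 min with compound. Gαo-bound [35S]GTPgS isolated by immunoprecipitation and counted by liquid scintillation.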

[1] = 0.1 μM compound as agonist, Series C-2 table
[2] = 1 μM compound as agonist, Series C-2 table
[3] = 0.1 μM compound as agonist, Series C-1 table
[4] = 1 μM compound as agonist, Series C-1 table

T1 sequence (P33535 whole entry): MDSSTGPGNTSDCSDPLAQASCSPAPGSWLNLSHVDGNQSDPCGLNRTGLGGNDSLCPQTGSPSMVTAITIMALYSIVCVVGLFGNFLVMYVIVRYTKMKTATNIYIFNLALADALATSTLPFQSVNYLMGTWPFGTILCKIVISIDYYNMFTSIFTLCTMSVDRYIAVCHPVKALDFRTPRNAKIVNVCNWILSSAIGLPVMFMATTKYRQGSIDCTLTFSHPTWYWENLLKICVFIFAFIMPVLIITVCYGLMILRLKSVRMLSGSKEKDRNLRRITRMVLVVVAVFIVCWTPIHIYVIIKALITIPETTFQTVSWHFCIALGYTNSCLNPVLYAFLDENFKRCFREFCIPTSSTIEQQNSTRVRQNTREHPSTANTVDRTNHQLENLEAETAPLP

| Structure (SMILES) | MOR agonist activity ([35S]GTPgS binding to Gao) [1] | MOR agonist activity ([35S]GTPgS binding to Gao) (1 μM + BFNA, Series C-2 table) | MOR agonist activity ([35S]GTPgS binding to Gao) [2] | MOR agonist activity ([35S]GTPgS binding to Gao) [3] | MOR agonist activity ([35S]GTPgS binding to Gao) (1 μM + BFNA, Series C-1 table) | MOR agonist activity ([35S]GTPgS binding to Gao) [4] | also measured |
| --- | --- | --- | --- | --- | --- | --- | --- |
| COc1ccc(S(=O)(=O)N2CCOC23CCN(C(C)C)CC3)cc1 [Compound C0133M] | 139.4% | 72.4% | 214.8% | – | – | – | – |
| Cc1ccc(S(=O)(=O)N2CCOC23CCN(CC2CC2)CC3)cc1 [Compound C0134M] | 158.5% | 46.6% | 207.3% | – | – | – | MOR agonist activity (preliminary study) (1 mM + bNFA): 53.2%; MOR agonist activity (preliminary study) (0.1 (unit uncertain) compound as agonist): 150.7%; MOR agonist activity (preliminary study) (1 (unit uncertain) compound as agonist): 224.0% |
| CCc1ccc(S(=O)(=O)N2CCOC23CCN(CC2CC2)CC3)cc1 [Compound C0135M] | 161.3% | 113.3% | 310.1% | – | – | – | – |
| O=C1CN(Cc2ccccc2)C2(CCN(S(=O)(=O)c3cc(Cl)cc(Cl)c3O)CC2)N1 [Compound C0138M] | – | – | – | 126.9% | 51.5% | 183.9% | – |
| O=C1CN(Cc2ccccc2)C2(CCN(S(=O)(=O)c3cc(Cl)c(O)c(Cl)c3)CC2)N1 [Compound C0139M] | – | – | – | 156.1% | 51.0% | 206.6% | – |
| O=S(=O)(c1ccc2ccccc2c1)N1CCC2(CC1)OCCN2S(=O)(=O)c1ccc2ccccc2c1 [Compound C0140M] | – | – | – | 126.1% | 83.0% | 215.4% | – |
| O=S(=O)(c1cccs1)N1CCC2(CC1)OCCN2S(=O)(=O)c1cccs1 [Compound C0141M] | – | – | – | 161.5% | 47.9% | 213.9% | – |
| COc1ccc(S(=O)(=O)N2CCC3(CC2)NCCC(=O)N3)cc1 [Compound C0142M] | 143.7% | 98.7% | 192.5% | – | – | – | – |
| O=S(=O)(c1cccc2cccnc12)N1CCC2(CC1)OCCN2S(=O)(=O)c1cccc2cccnc12 [Compound C0143M] | 81.0% | 86.5% | 193.3% | 81.0% | 86.5% | 193.3% | – |
| COc1ccc(S(=O)(=O)N2CCC3(NCCO3)C3CCCCC32)cc1 (stereo not drawn) [Compound C0144M-2] | 186.3% | 125.9% | 295.9% | – | – | – | – |
| COc1ccc(S(=O)(=O)N2CCC3(OCCN3S(=O)(=O)c3ccc(OC)cc3)C3CCCCC32)cc1 (stereo not drawn) [Compound C0144M] | – | – | – | 186.3% | 125.9% | 295.9% | – |
| COc1ccc(S(=O)(=O)N2CCOC23CCCNC3)cc1 (stereo not drawn) [Compound C0145M-3] | 193.0% | 87.0% | 289.2% | – | – | – | – |
| COc1ccc(S(=O)(=O)N2CCCC3(C2)OCCN3S(=O)(=O)c2ccc(OC)cc2)cc1 (stereo not drawn) [Compound C0145M] | – | – | – | 193.0% | 87.0% | 289.2% | – |
| O=C1CNC2(CCN(S(=O)(=O)c3ccc(O)cc3)CC2)N1Cc1ccccc1 [Compound C0148M] | – | – | – | 181.3% | 87.6% | 360.6% | % DAMGO + BFNA (relative to DAMGO + BFNA, Series C-1 table): 95.9%; % DAMGO (0.1 μM) (relative to DAMGO at 0.1 μM, Series C-1 table): 105.4%; % DAMGO (1 μM) (relative to DAMGO at 1 μM, Series C-1 table): 110.6% |
| O=S(=O)(c1ccccc1Oc1ccccc1)N1CCC2(CC1)NCCO2 [Compound C0149M-2] | 209.8% | 93.4% | 406.7% | – | – | – | – |
| O=S(=O)(c1ccc(Oc2ccccc2)cc1)N1CCC2(CC1)OCCN2S(=O)(=O)c1ccc(Oc2ccccc2)cc1 [Compound C0149M] | – | – | – | 209.8% | 93.4% | 406.7% | – |
| O=S(=O)(c1csc2ccccc12)N1CCC2(CC1)OCCN2S(=O)(=O)c1csc2ccccc12 [Compound C0150M] | – | – | – | 167.1% | 93.4% | 423.1% | – |
| COc1ccc(NC(=O)N2CCC3(CC2)NCCO3)cc1 [Compound C0151M-2] | 346.8% | 212.8% | 397.6% | – | – | – | – |
| COc1ccc(NC(=O)N2CCC3(CC2)OCCN3C(=O)Nc2ccc(OC)cc2)cc1 [Compound C0151M] | – | – | – | 346.8% | 212.8% | 397.6% | – |

— patent publication US20220233512A1, “INHIBITING AN IMMUNE RESPONSE MEDIATED BY ONE OR MORE OF TLR2, RAGE, CCR5, CXCR4 AND CD4” (priority 2020, published 2022)
